Patent publication US20240052423A1, “METHODS OF IDENTIFYING A TUMOR THAT IS SENSITIVE TO TREATMENT WITH TALAZOPARIB AND METHODS OF TREATMENT THEREOF” (PFIZER INC., priority 2020, published 2024)

How the values were obtained:
Assay type in all cases: in vivo, human
[1] = tested on: other solid tumors with a mutation in homologous recombination; test: Phase II clinical trial of talazoparib, best response by RECIST v.1.1, non-breast cancer cohort; conditions: Non-Breast Cancer (N = 7), 1 mg orally daily
Method: (§1) A phase II clinical trial of the PARP inhibitor talazoparib in BRCA1 and BRCA2 wild-type patients with HER2-negative advanced breast cancer or other solid tumors with a mutation in homologous recombination was conducted as shown in FIG. 1. Eligible patients were adults (≥18 years old) with HER2-negative advanced or metastatic breast cancer that had progressed on at least 1 prior line of therapy for metastatic disease. Eligible patients also included adults (≥18 years old) with advanced or metastatic solid tumors beyond breast cancer that had progressed on at least one prior line of therapy. Patients were required to have no pathogenic mutations in either BRCA1 or BRCA2 genes on germline or somatic testing. They were required to have a pathogenic or likely pathogenic mutation in a HR-pathway associated gene detected on multiplex germline or somatic testing. These genes include: PALB2, CHEK2, ATM, NBN, BARD1, BRIP1, RAD50, RAD51C, RAD51D, MRE11, ATR, PTEN, Fanconi anemia complementation group of genes (FANCA, FANCC, FANCD2, FANCE, FANCF, FANCG, FANCL), plus other HR-related genes at the discretion of the primary investigators. Measurable disease by RECIST version 1.1 was required. There was no upper limit on the number of prior systemic therapies allowed prior to study entry. Patients were not allowed to have progressed during therapy with a platinum agent or within 8 weeks of discontinuing a platinum agent. Subjects were required to have an Eastern Cooperative Oncology Group (ECOG) performance status (PS) of 0-2 and adequate organ function based on screening laboratory values of liver, renal and hematologic parameters. The ability to take oral medications was required. Sexually active patients of childbearing potential were mandated to use contraception and females of childbearing age were tested for pregnancy at screening; females were not permitted to participate if pregnant or nursing and were tested for pregnancy at screening. Patients were excluded if they previously took any PARP inhibitor, had taken any anti-cancer therapy within 21-days of study entry, received radiation therapy within 14 days of study entry, had active brain metastasis requiring treatment or leptomeningeal disease. Patients with human immunodeficiency virus infection or active hepatitis C or hepatitis B viral infections were excluded. Also, patients requiring prolonged hospitalization, major surgery or receiving other investigational agent within 21 days prior to study entry were excluded. Additional key exclusion criteria were: other medical co-morbidity likely to interfere with study participation eg. infection grade ≥3 CTCAE version 4, or requiring parenteral antibiotics within 7 days, or known hypersensitivity to talazoparib. Talazoparib was administered at 1 mg orally daily continuously, taken whole, at approximately the same time each day. Treatment cycles lasted 28 days. Patients were evaluated on day 1 of each treatment cycle by physician assessment including medical history, physical examination, laboratory values (complete blood count (CBC) and comprehensive metabolic panel), vital signs, ECOG PS assessment and urine pregnancy test (for women of childbearing age only). Day 14 physician assessment was required for the first cycle and CBCs were required weekly for the first cycle, then prior to start of each subsequent cycle. Treatment continued until disease progressed or unacceptable toxicity. Safety was assessed at each physician visit and monitored continuously by laboratory values, patient reporting and patient diary. Adverse events (AEs) and severe AEs (SAEs) were graded according to CTCAE version 4.0. SAEs grade ≥3 were reported to the Data Safety Monitoring Committee. Tumor evaluation was performed at baseline and after every two cycles and responses were assessed according to RECIST version 1.1. After six cycles, tumor evaluations were allowed every 3 cycles per physician discretion. […]

[2] = tested on: HER2-negative advanced breast cancer or other solid tumors with a mutation in homologous recombination; test: Phase II clinical trial of talazoparib, best response by RECIST v.1.1, combined cohorts
Method: as §1

[3] = tested on: HER2-negative advanced or metastatic breast cancer with a non-BRCA1/2 mutation in homologous recombination; test: Phase II clinical trial of talazoparib, best response by RECIST v.1.1, breast cancer cohort; conditions: Breast Cancer (N = 13), 1 mg orally daily
Method: as §1

[4] = Combined (N = 20), 1 mg orally daily, RECIST v.1.1

Cn1ncnc1[C@H]1c2n[nH]c(=O)c3cc(F)cc(c23)N[C@@H]1c1ccc(F)cc1 [talazoparib, (8S,9R)-5-fluoro-8-(4-fluorophenyl)-9-(1-methyl-1H-1,2,4-triazol-5-yl)-8,9-dihydro-2H-pyrido[4,3,2-de]phthalazin-3(7H)-one]
CBR (CR + PR + SD ≥ 6 mos) [1]: 2 (29%); n (%)
ORR (CR + PR) ([1]; 95% CI: 0-41%): 0 (0%); n (%)
Complete Response (CR), response rate ([1]; RECIST v.1.1): 0 (0%) n (%)
Partial Response (PR), response rate ([1]; RECIST v.1.1): 0 (0%) n (%)
Progressive Disease (PD), response rate ([1]; RECIST v.1.1): 3 (43%) n (%)
Stable Disease (SD), response rate ([1]; RECIST v.1.1): 4 (57%) n (%)
ORR (CR + PR) ([2]; Combined (N = 20), 1 mg orally daily, 95% CI: 6-44%): 4 (20%); n (%)
CBR (CR + PR + SD ≥ 6 mos) ([2]; Combined (N = 20), 1 mg orally daily, 95% CI: 23-68%): 9 (45%); n (%)
Complete Response (CR), response rate [2, 4]: 0 (0%) n (%)
Partial Response (PR), response rate [2, 4]: 4 (20%) n (%)
Progressive Disease (PD), response rate [2, 4]: 6 (30%) n (%)
Stable Disease (SD), response rate [2, 4]: 10 (50%) n (%)
partial responses observed in the first stage ([2]; first stage of 10 patients): two
ORR (CR + PR) ([3]; 95% CI: 9-61%): 4 (31%); n (%)
CBR (CR + PR + SD ≥ 6 mos) ([3]; 95% CI: 21-81%): 7 (54%); n (%)
Complete Response (CR), response rate ([3]; RECIST v.1.1): 0 (0%) n (%)
Partial Response (PR), response rate ([3]; RECIST v.1.1): 4 (31%) n (%)
Progressive Disease (PD), response rate ([3]; RECIST v.1.1): 3 (23%) n (%)
Stable Disease (SD), response rate ([3]; RECIST v.1.1): 6 (46%) n (%)
